Data on 16 molecules can be found in US8952034B2, “Fused heterocyclic compounds as ion channel modulators” (Gilead Sciences, Inc., priority 2009, dated 2015).

For this assay, the target named is wild-type human cardiac sodium channel, hNav1.5 (Homo sapiens, UniProt Q14524). Briefly: Late INa screening assay (automated whole cell patch clamp, PatchXpress). It is filed as cell-based. The conditions noted are these: HEK293 cells expressing hNav1.5, late INa generated with 10 μM Tefluthrin (or 50 nM ATX II); for inhibition at 10 µM: compound at 10 μM, read-out: LateINa_10 uM (percent block of late INa); for inhibition at 1 µM: compound at 1 μM, read-out: LateINa_1 uM (percent block of late INa). The protocol:
The late sodium current (Late INa) and peak sodium current (Peak INa) assays are performed on an automated electrophysiology platform, PatchXpress 7000A (MDS Analytical Technologies, Sunnyvale, Calif.), which uses the whole cell patch clamp technique to measure currents through the cell membrane of up to 16 cells at a time. The assay uses an HEK293 (human embryonic kidney) cell line heterologously expressing the wild-type human cardiac sodium channel, hNav1.5, purchased from Millipore (Billerica, Mass.). No beta subunits were coexpressed with the Na channel alpha subunit. Cells are maintained with standard tissue culture procedures and stable channel expression is maintained with 400 μg/ml Geneticin in the culture medium. […] Experiments are carried out at 24-27° C.
For both the Late INa and Peak INa assays, series resistance compensation is set to 50% and whole-cell compensation is performed automatically. […] Currents through open sodium channels are automatically recorded and stored in the DataXpress2 database (MDS Analytical Technologies, Sunnyvale, Calif.). Analysis is performed using DataXpress2 analysis software and data are compiled in Excel.
Compound stocks are routinely made in glass vials to 10 mM in dimethyl sulfoxide (DMSO). In some cases, when compounds are not soluble in DMSO, they are made in 100% ethanol. Stocks are sonicated as necessary. The extracellular solution for screening Late INa is composed of: 140 mM NaCl, 4 mM KCl, 1.8 mM CaCl2, 0.75 mM MgCl2, and 5 mM HEPES with pH adjusted to 7.4 using NaOH. The extracellular solution for screening Peak INa is composed of: 20 mM NaCl, 120 mM N-methyl-D glucamine, 4 mM KCl, 1.8 mM CaCl2, 0.75 mM MgCl2, and 5 mM HEPES with pH adjusted to 7.4 using HCl. The intracellular solution used to perfuse the inside of the cells for both the Late INa and Peak INa assays contains: 120 mM CsF, 20 mM CsCl, 5 mM EGTA, 5 mM HEPES and pH adjusted to 7.4 with CsOH. […] The 0Na extracellular solution used at the end of each experiment for the Late INa and Peak INa assays to measure baseline current contains: 140 mM N-methyl-D-glucamine; 4 mM KCl; 1.8 mM CaCl2; 0.75 mM MgCl2; 5 mM HEPES and pH was adjusted to 7.4 with HCl.
For the Late INa assay, sodium channels are activated every 10 seconds (0.1 Hz) by depolarizing the cell membrane to −20 mV for 250 milliseconds (ms) from a holding potential of −120 mV. In response to a −20 mV voltage step, typical Nav1.5 sodium currents activate rapidly to a peak negative current and then inactivate nearly completely within […].
All compounds are tested to determine their activity in blocking the late sodium current. Late INa current is generated by adding 10 μM Tefluthrin (pyrethroid) to the extracellular solution while recording Na currents For some experiments, 50 nM ATX II (sea anemone toxin), another late INa activator, was used to generate the late component. […] After establishing the whole cell recording configuration, late INa activators are added to each well 4 times over a 16-17 minute period so that the late component of the Na current reaches a stable value. […] Measurements are made at the end of exposure to the third compound addition and values are normalized to the current level when all Na^+ is removed from the extracellular solution after two additions of 0Na-ECF. Results are reported as percent block of late INa
On the technique in general: Patch clamp records ionic current or voltage across a cell membrane.

wild-type human cardiac sodium channel, hNav1.5, sequence (Q14524 whole entry): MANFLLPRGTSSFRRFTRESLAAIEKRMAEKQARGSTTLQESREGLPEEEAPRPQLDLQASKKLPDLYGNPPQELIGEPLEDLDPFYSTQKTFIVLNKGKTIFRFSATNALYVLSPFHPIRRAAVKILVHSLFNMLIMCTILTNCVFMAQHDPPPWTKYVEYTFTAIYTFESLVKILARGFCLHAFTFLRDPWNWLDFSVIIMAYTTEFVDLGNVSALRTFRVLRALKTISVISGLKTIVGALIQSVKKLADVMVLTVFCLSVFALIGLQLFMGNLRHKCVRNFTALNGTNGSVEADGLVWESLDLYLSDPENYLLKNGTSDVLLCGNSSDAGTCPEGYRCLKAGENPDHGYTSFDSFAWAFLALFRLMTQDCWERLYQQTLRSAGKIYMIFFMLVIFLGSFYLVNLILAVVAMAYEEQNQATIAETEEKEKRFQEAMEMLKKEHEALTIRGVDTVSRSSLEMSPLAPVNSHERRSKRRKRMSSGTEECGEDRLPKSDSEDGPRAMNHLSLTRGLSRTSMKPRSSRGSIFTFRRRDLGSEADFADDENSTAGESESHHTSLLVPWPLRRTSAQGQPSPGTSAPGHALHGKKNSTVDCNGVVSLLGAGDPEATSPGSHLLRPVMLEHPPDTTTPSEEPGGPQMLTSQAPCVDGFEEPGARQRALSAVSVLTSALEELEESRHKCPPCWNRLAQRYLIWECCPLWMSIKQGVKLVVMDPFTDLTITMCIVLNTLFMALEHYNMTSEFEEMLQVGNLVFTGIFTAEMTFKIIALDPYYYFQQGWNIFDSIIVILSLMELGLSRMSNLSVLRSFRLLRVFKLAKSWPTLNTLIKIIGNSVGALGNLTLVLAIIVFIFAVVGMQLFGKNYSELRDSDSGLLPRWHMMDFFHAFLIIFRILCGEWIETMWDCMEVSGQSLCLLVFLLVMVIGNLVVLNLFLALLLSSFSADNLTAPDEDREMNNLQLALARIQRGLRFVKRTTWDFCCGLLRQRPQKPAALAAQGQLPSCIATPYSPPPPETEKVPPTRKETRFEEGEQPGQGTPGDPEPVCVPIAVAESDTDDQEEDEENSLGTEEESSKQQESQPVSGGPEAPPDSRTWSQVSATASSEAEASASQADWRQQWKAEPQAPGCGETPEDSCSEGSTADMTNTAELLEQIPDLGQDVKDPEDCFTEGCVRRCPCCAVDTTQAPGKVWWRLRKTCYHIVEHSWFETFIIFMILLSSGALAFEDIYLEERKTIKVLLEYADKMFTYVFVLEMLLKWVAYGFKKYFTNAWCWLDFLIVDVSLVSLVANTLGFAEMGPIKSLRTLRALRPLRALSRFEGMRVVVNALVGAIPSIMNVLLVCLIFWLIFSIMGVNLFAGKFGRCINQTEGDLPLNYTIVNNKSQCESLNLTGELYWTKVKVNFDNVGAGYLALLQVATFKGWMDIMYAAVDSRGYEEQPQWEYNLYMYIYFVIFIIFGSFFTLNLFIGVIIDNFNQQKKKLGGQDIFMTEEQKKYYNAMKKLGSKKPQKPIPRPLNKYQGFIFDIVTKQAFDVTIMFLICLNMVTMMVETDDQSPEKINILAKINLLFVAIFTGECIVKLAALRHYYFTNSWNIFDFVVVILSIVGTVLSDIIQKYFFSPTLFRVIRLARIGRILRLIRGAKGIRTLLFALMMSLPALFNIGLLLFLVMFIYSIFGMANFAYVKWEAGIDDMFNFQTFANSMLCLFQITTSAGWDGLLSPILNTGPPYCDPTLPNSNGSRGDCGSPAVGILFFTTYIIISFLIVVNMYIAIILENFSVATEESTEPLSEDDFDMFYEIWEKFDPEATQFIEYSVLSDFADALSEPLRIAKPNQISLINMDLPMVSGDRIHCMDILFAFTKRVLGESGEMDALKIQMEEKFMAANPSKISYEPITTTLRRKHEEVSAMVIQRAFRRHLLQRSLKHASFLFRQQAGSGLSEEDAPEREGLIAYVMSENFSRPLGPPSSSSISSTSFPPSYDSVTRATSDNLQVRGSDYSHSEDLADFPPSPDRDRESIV

Take `FC(F)(F)c1ncc2ccc(-c3ccc(Oc4ccccc4)cc3)cn12` [BHN-7, 6-(4-phenoxyphenyl)-3-(trifluoromethyl)imidazo[1,5-a]pyridine]: the inhibition at 10 µM turned out to be 55.4%.

Regarding `FC(F)(F)c1nnc2ccc(-c3cccc(Oc4ccccc4)c3)cn12` [BHN-9, 6-(3-phenoxyphenyl)-3-(trifluoromethyl)[1,2,4]triazolo[4,3-a]pyridine], the inhibition at 1 µM turned out to be 29.6% and the inhibition at 10 µM is 75.7%.

Take `FC(F)(F)c1cc(-c2ccc3nnc(C(F)(F)F)n3c2)ccc1Cl` [BHN-10, 6-[4-chloro-3-(trifluoromethyl)phenyl]-3-(trifluoromethyl)[1,2,4]triazolo[4,3-a]pyridine]: the inhibition at 10 µM turned out to be 51.2%.

`FC(F)(F)c1nnc2ccc(-c3ccc(Oc4ccccc4)cc3)nn12` [BHN-11, 6-(4-phenoxyphenyl)-3-(trifluoromethyl)[1,2,4]triazolo[4,3-b]pyridazine]: the inhibition at 10 µM came out at 44.7%.

Turning to `FC(F)c1nnc2ccc(-c3ccc(OC(F)(F)F)cc3)nn12` [BHN-12, 3-(difluoromethyl)-6-[4-(trifluoromethoxy)phenyl][1,2,4]triazolo[4,3-b]pyridazine], the inhibition at 1 µM turned out to be 39.6% and the inhibition at 10 µM was found to be 79.7%.

On to `FC(F)c1nnc2ccc(-c3ccc(Oc4ccccc4)cc3)nn12` [BHN-13, 3-(difluoromethyl)-6-(4-phenoxyphenyl)[1,2,4]triazolo[4,3-b]pyridazine], for which the inhibition at 1 µM was determined as 44.8% and the inhibition at 10 µM stood at 87.1%.

Consider `Fc1cc(-c2ccc3nnc(C(F)(F)F)n3c2)ccc1Cl` [BHN-14, 6-(4-chloro-3-fluorophenyl)-3-(trifluoromethyl)[1,2,4]triazolo[4,3-a]pyridine], for which the inhibition at 10 µM amounted to 28.3%.

`FC(F)(F)c1nnc2cnc(-c3ccc(Oc4ccccc4)cc3)cn12` [BHN-16, 6-(4-phenoxyphenyl)-3-(trifluoromethyl)[1,2,4]triazolo[4,3-a]pyrazine]: the inhibition at 10 µM was found to be 54.3%.

Consider `Cc1cc2nnc(C(F)(F)F)n2cc1-c1cccc(OC(F)(F)F)c1` [BHN-17, 7-methyl-6-[3-(trifluoromethoxy)phenyl]-3-(trifluoromethyl)[1,2,4]triazolo[4,3-a]pyridine], for which the inhibition at 10 µM came to 25.3%.

Turning to `FC(F)c1nnc2cnc(-c3ccc(Oc4ccccc4)cc3)cn12` [BHN-18, 3-(difluoromethyl)-6-(4-phenoxyphenyl)[1,2,4]triazolo[4,3-a]pyrazine], the inhibition at 10 µM came out at 54.6%.

For `O=C(O)Cc1nnc2ccc(-c3ccc(OC(F)(F)F)cc3)cn12` [BHN-19, {6-[4-(trifluoromethoxy)phenyl][1,2,4]triazolo[4,3-a]pyridin-3-yl}acetic acid], the inhibition at 10 µM came to 35.4%.

As to `FC(F)(F)Oc1ccc(-c2ccc3nnc(-c4ccccc4)n3c2)cc1` [BHN-21, 3-phenyl-6-[4-(trifluoromethoxy)phenyl][1,2,4]triazolo[4,3-a]pyridine], the inhibition at 1 µM came out at 65.2% and the inhibition at 10 µM amounted to 86.5%.

Turning to `c1ccc(Oc2ccc(-c3ccc4nncn4n3)cc2)cc1` [BHN-22, 6-(4-phenoxyphenyl)[1,2,4]triazolo[4,3-b]pyridazine], the inhibition at 10 µM amounted to 59%.

As to `FC(F)c1nnc2cnc(-c3ccc(OC(F)(F)F)cc3)cn12` [BHN-23, 3-(difluoromethyl)-6-[4-(trifluoromethoxy)phenyl][1,2,4]triazolo[4,3-a]pyrazine], the inhibition at 1 µM turned out to be 53.5% and the inhibition at 10 µM stood at 74.7%.

Turning to `FC(F)(F)Oc1ccc(-c2ccc3nncn3n2)cc1` [BHN-25, 6-[4-(trifluoromethoxy)phenyl][1,2,4]triazolo[4,3-b]pyridazine], the inhibition at 10 µM was determined as 39%.

Turning to `Cc1cc(OC(F)(F)F)ccc1-c1ccc2nnc(C(F)(F)F)n2n1` [BHN-26, 6-[2-methyl-4-(trifluoromethoxy)phenyl]-3-(trifluoromethyl)[1,2,4]triazolo[4,3-b]pyridazine], the inhibition at 1 µM is 64.4% and the inhibition at 10 µM was 75.3%.
